{"source": "paper PMC2806030", "about": "“Inhibition of mammalian S6 kinase by resveratrol suppresses autophagy” (Aging (Albany NY), 2009)", "test_in_all_cases": "biochemical", "set-up_in_all_cases": "Upstate KinaseProfiler in vitro kinase activity assay, per cent of DMSO control", "settings_in_all_cases": "read-out: Activity (% of Control)", "key": {"Aurora-A(h)": {"target": "T1, Aurora-A(h) (Homo sapiens, UniProt O14965)", "T1 construct": "gene AURKA", "method_in_brief": "(§1)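 Profiling done with Upstate KinaseProfiler service across 100 kinases, resveratrol tested at 20 μM; activity expressed relative to control.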"}, "CDK5/p25(h)": {"target": "T2, CDK5/p25(h) (Homo sapiens, UniProt Q00535)", "T2 construct": "p25", "method_in_brief": "as §1"}, "DAPK1(h)": {"target": "DAPK1(h) (Homo sapiens, UniProt P53355)", "method_in_brief": "as §1"}, "Flt3(h)": {"target": "Flt3(h) (Homo sapiens, UniProt P36888)", "sequence (P36888 whole entry)": "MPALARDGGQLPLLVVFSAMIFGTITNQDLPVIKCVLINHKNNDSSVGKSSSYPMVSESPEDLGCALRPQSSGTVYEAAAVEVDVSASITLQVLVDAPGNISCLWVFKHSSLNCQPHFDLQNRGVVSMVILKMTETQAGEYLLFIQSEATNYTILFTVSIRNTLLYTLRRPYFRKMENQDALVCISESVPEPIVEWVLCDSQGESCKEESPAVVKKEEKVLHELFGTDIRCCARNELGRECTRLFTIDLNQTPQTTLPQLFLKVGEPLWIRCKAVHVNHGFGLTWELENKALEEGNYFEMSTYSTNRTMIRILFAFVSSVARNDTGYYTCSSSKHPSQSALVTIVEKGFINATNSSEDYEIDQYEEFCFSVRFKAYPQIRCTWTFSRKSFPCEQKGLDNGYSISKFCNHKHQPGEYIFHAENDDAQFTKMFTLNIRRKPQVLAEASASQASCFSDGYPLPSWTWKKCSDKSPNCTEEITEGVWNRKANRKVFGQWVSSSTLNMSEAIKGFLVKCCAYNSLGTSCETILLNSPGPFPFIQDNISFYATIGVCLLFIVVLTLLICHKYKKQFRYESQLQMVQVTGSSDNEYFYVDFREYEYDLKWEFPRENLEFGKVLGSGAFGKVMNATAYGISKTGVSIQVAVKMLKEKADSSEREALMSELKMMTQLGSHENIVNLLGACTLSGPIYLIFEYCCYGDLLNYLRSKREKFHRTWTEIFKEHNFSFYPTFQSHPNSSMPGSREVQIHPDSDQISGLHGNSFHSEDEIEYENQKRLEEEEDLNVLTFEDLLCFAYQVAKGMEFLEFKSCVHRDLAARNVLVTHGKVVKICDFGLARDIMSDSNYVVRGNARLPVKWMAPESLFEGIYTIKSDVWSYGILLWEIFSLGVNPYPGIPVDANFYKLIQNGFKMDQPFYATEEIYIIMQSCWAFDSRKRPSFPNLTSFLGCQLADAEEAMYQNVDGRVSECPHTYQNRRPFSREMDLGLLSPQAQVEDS", "method_in_brief": "as §1"}, "IRAK1(h)": {"target": "IRAK1(h) (Homo sapiens, UniProt P51617)", "method_in_brief": "as §1"}, "JNK1α1(h)": {"target": "T3, JNK1α1(h) (Homo sapiens, UniProt P45983)", "T3 construct": "gene MAPK8; isoform alpha1", "T3 sequence (P45983 whole entry, canonical isoform)": "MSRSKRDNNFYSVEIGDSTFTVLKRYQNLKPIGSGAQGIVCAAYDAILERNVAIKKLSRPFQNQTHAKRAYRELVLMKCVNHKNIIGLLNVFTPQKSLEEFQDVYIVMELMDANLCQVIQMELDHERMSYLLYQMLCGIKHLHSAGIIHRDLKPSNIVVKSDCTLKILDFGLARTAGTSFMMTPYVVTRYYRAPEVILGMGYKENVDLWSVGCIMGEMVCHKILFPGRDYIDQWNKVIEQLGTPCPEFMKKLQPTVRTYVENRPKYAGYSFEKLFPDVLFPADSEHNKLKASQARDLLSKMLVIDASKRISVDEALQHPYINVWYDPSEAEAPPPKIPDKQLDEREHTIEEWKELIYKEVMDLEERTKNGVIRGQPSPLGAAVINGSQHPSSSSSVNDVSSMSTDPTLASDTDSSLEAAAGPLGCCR", "method_in_brief": "as §1"}, "JNK3(h)": {"target": "T4, JNK3(h) (Homo sapiens, UniProt P53779)", "T4 construct": "gene MAPK10", "method_in_brief": "as §1"}, "MSK2(h)": {"target": "T5, MSK2(h) (Homo sapiens, UniProt O75676)", "T5 construct": "gene RPS6KA4", "T5 sequence (O75676 whole entry)": "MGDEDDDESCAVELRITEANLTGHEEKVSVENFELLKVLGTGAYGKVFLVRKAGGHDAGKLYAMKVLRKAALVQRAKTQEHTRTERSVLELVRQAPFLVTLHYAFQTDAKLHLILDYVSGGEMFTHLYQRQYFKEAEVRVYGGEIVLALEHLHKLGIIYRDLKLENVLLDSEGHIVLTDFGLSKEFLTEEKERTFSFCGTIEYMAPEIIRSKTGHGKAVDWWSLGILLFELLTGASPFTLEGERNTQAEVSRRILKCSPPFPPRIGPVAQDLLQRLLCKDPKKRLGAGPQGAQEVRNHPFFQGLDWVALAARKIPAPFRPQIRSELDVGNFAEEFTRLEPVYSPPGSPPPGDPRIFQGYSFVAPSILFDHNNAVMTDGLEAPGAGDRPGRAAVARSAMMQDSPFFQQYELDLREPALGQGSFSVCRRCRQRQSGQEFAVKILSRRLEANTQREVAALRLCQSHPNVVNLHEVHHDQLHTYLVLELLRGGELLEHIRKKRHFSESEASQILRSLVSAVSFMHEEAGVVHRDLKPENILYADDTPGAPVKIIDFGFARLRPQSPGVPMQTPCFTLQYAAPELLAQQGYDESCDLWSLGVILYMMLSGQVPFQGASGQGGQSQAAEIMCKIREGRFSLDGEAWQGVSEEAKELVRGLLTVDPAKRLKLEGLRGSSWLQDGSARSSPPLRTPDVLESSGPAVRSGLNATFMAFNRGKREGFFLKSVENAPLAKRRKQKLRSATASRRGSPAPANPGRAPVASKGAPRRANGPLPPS", "method_in_brief": "as §1"}, "NEK6(h)": {"target": "NEK6(h) (Homo sapiens, UniProt Q9HC98)", "sequence (Q9HC98 whole entry)": "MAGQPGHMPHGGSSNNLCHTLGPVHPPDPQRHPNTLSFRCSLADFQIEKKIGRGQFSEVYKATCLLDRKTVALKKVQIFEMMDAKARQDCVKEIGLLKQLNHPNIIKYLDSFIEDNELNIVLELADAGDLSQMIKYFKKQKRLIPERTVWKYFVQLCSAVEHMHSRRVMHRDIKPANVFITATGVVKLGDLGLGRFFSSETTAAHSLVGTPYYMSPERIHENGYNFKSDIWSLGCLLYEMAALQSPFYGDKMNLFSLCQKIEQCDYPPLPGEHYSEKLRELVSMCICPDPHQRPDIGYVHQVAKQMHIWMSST", "method_in_brief": "as §1"}, "PKCßI(h)": {"target": "T6, PKCßI(h) (Homo sapiens, UniProt P05771)", "T6 construct": "gene PRKCB; isoform beta I", "T6 sequence (P05771 whole entry, canonical isoform)": "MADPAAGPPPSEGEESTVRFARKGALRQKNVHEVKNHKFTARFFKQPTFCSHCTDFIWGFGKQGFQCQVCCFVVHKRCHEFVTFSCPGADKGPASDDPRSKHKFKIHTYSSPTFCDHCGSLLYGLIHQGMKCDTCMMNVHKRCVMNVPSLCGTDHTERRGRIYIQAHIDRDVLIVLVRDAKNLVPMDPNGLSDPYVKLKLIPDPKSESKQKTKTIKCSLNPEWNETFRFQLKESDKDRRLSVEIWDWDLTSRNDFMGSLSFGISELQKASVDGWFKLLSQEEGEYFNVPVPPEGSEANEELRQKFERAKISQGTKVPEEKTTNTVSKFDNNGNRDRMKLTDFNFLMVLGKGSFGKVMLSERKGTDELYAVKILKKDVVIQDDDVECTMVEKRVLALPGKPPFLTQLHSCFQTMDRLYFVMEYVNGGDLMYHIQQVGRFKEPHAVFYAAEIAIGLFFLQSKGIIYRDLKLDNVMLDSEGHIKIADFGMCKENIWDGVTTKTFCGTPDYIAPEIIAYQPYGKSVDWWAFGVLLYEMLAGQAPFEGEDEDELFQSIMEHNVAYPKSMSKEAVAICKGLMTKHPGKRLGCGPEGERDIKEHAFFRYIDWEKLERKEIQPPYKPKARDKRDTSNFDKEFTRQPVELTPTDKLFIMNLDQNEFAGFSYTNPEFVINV", "method_in_brief": "as §1"}, "PKCα(h)": {"target": "T7, PKCα(h) (Homo sapiens, UniProt P17252)", "T7 construct": "gene PRKCA", "method_in_brief": "as §1"}, "Ros(h)": {"target": "T8, Ros(h) (Homo sapiens, UniProt P08922)", "T8 construct": "gene ROS1", "method_in_brief": "as §1"}, "SAPK2a(h)": {"target": "T9, SAPK2a(h) (Homo sapiens, UniProt Q16539)", "T9 construct": "gene MAPK14", "method_in_brief": "as §1"}, "SAPK3(h)": {"target": "T10, SAPK3(h) (Homo sapiens, UniProt P53778)", "T10 construct": "gene MAPK12", "method_in_brief": "as §1"}, "TBK1(h)": {"target": "TBK1(h) (Homo sapiens, UniProt Q9UHD2)", "sequence (Q9UHD2 whole entry)": "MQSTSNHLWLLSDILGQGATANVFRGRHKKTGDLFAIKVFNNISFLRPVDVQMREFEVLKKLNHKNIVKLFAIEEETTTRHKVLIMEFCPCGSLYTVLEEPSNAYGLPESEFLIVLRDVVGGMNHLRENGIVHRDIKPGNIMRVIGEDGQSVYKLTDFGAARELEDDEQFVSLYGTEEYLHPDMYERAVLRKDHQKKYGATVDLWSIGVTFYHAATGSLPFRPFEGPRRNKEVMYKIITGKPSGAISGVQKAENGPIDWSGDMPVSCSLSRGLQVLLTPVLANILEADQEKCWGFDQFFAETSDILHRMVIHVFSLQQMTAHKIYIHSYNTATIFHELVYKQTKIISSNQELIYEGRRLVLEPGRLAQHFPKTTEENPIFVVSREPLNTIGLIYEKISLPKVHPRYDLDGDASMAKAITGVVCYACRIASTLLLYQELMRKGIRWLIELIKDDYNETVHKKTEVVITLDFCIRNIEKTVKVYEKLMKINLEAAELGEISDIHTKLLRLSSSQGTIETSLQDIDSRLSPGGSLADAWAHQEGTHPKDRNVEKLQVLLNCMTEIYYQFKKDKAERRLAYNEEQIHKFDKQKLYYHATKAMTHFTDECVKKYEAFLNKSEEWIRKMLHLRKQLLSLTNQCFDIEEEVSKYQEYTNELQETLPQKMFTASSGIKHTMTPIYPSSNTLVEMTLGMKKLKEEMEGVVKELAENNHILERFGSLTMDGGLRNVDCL", "method_in_brief": "as §1"}, "Tie2(h)": {"target": "T11, Tie2(h) (Homo sapiens, UniProt Q02763)", "T11 construct": "gene TEK", "T11 sequence (Q02763 whole entry)": "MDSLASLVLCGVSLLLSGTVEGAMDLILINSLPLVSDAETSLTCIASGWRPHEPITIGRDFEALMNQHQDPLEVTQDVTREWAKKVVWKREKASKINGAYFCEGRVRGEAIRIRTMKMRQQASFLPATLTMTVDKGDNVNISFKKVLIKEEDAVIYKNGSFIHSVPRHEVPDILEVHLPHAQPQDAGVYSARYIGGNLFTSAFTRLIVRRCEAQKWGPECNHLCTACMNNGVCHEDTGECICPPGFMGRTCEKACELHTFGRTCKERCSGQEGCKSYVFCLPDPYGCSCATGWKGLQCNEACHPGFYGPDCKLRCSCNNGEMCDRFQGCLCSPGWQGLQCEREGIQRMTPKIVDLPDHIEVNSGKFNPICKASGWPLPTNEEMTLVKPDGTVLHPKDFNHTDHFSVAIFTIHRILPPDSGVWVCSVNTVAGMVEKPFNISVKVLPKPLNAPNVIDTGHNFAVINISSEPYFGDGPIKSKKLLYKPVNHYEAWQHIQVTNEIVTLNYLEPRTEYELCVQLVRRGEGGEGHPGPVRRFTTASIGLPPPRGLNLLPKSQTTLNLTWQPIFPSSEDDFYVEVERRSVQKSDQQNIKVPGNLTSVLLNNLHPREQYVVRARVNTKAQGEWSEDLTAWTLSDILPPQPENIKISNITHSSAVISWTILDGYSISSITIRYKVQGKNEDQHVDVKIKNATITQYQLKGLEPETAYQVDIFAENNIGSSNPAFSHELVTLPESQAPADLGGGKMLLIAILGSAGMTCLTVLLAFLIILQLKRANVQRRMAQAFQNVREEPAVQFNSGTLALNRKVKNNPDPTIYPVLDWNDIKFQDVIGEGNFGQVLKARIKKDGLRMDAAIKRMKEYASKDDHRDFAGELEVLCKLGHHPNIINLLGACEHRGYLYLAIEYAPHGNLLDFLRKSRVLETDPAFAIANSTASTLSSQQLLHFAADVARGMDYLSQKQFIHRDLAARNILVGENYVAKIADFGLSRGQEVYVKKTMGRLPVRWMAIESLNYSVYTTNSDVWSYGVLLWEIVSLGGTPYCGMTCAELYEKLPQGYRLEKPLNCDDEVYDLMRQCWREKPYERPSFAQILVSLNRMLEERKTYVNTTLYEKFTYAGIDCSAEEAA", "method_in_brief": "as §1"}, "TrkA(h)": {"target": "T12, TrkA(h) (Homo sapiens, UniProt P04629)", "T12 construct": "gene NTRK1", "method_in_brief": "as §1"}, "TrkB(h)": {"target": "T13, TrkB(h) (Homo sapiens, UniProt Q16620)", "T13 construct": "gene NTRK2", "method_in_brief": "as §1"}}}
{"smiles": "Oc1ccc(/C=C/c2cc(O)cc(O)c2)cc1", "note": "[Res, resveratrol]", "values": [{"measurement": "remaining activity at 20 µM", "setting": "Aurora-A(h)", "result": "65 ± 1", "unit": "%"}, {"measurement": "remaining activity at 20 µM", "setting": "CDK5/p25(h)", "result": "64 ± 4", "unit": "%"}, {"measurement": "remaining activity at 20 µM", "setting": "DAPK1(h)", "result": "71 ± 3", "unit": "%"}, {"measurement": "remaining activity at 20 µM", "setting": "Flt3(h)", "result": "41 ± 1", "unit": "%"}, {"measurement": "remaining activity at 20 µM", "setting": "IRAK1(h)", "result": 97, "unit": "%"}, {"measurement": "remaining activity at 20 µM", "setting": "JNK1α1(h)", "result": "89 ± 5", "unit": "%"}, {"measurement": "remaining activity at 20 µM", "setting": "JNK3(h)", "result": "98 ± 3", "unit": "%"}, {"measurement": "remaining activity at 20 µM", "setting": "MSK2(h)", "result": "60 ± 1", "unit": "%"}, {"measurement": "remaining activity at 20 µM", "setting": "NEK6(h)", "result": "140 ± 16", "unit": "%"}, {"measurement": "remaining activity at 20 µM", "setting": "PKCßI(h)", "result": "103 ± 5", "unit": "%"}, {"measurement": "remaining activity at 20 µM", "setting": "PKCα(h)", "result": "114 ± 9", "unit": "%"}, {"measurement": "remaining activity at 20 µM", "setting": "Ros(h)", "result": "102 ± 4", "unit": "%"}, {"measurement": "remaining activity at 20 µM", "setting": "SAPK2a(h)", "result": "100 ± 4", "unit": "%"}, {"measurement": "remaining activity at 20 µM", "setting": "SAPK3(h)", "result": "110 ± 5", "unit": "%"}, {"measurement": "remaining activity at 20 µM", "setting": "TBK1(h)", "result": "62 ± 4", "unit": "%"}, {"measurement": "remaining activity at 20 µM", "setting": "Tie2(h)", "result": "94 ± 8", "unit": "%"}, {"measurement": "remaining activity at 20 µM", "setting": "TrkA(h)", "result": "31 ± 3", "unit": "%"}, {"measurement": "remaining activity at 20 µM", "setting": "TrkB(h)", "result": "98 ± 1", "unit": "%"}]}
